Like-named read-outs stand apart in the source and are kept apart here.
How the values were obtained:
[1] = Determination of PTE in mouse serum and brain tissue and pharmacokinetic analysis; format: in vivo; details: mice, 50 mg/kg ip; for Kp: brain/serum, ip, 50 mg/kg; for concentration at 15 min / concentration at 30 min / concentration at 60 min / concentration at 120 min / concentration at 240 min: mean ± SEM; for MRT: read-out: MRT (mean residence time); for half-life: read-out: t0.5 λz (terminal half-life) (converted); for Tmax: read-out: time of peak concentration following dosing (converted); for k el: read-out: λz (terminal elimination rate constant) (converted)
Method: In order to isolate PTE from biological samples, brains were homogenized in distilled water (1:4, w/v) with a tissue homogenizer TH220 (Omni International, Inc., Warrenton, VA, USA). Aliquots of 0.2–0.3 ml of serum or 0.5–1 ml of brain homogenate were spiked with 10 µl of internal standard (IS) solution containing clonazepam at concentration of 10 µg/ml and vortexed (Reax top, Heidolph, Germany) for 10 s. Both serum samples and brain homogenates were extracted with 3 ml of a mixture of ethyl acetate:hexane (30:70, v/v) for 20 min on a shaker (VXR Vibrax, IKA, Germany). After centrifugation (Universal 32, Hettich, Germany) at 3000 rpm for 15 min, the organic layers ware transferred to new tubes and evaporated to dryness at 37 °C under a gentle stream of nitrogen. The residues were dissolved in 100 µl of methanol and aliquots of 10–50 µl of the solution were injected into the HPLC system. The analysis was performed on a 250 × 4.6 mm LiChrospher®100 RP-18 column with a particle size of 5 µm (Merck, Darmstadt, Germany) protected with a guard column (4 × 4 mm) with the same packing material. The mobile phase was composed of deionized water and acetonitrile mixed at a ratio of 50:50 (v/v) and pumped at a flow rate of 1 ml/min. The column temperature was maintained at 21 °C. The HPLC system (Merck-Hitachi, Darmstadt, Germany) consisted of an L-7100 isocratic pump, an L-7200 autosampler, and a UV variable-wavelength K-2600 detector (Knauer, Berlin, Germany) operating at 321 nm. D-7000 HSM software was used for data acquisition and processing. In these conditions, the retention times of IS and PTE were approximately 5.3 and 12.8 min. The calibration curve constructed by plotting the ratio of the peak area of PTE to IS vs PTE concentrations was linear in the tested concentration ranges. The limit of quantification of the analytical method was 5 ng/ml (or ng/g tissue). […] The extraction efficiencies of PTE and IS were higher than 90%.
Serum and total brain concentrations of PTE were determined in groups consisted of 8 animals. Pharmacokinetic parameters were calculated using non-compartmental analysis in Phoenix WinNonlin v. 7.0 (Pharsight Corporation, a Certara Company, Princeton, NJ, USA).

mice = test: Forced swim test; format: in vivo; details: PTE 50 to 200 mg/kg ip, data not shown
Method: The forced swim test was carried out according to the method described by Porsolt et al. to assess antidepressant properties of PTE. Mice were placed individually in a glass cylinder (25 cm high; 10 cm diameter) containing tap water to a depth of 11 cm. Water was maintained at temperature of 23–25 °C. Mice were permitted to swim for 6 min and duration of their immobility was recorded during the last 4 min of the test by a trained experimenter who was blinded to the treatment. Immobility time was recorded using cumulative stopwatches. Mouse was considered to be immobile when it was floating in the water without struggling and making no attempts to escape, it was making only these movements necessary to keep its head above the water. After each trial, the water in the cylinder was replaced with fresh water. Experimental groups consisted of 10 animals.
Data obtained in the forced swim test were expressed as the mean (in s) + SEM immobility time in each experimental group. Results were analyzed by one-way ANOVA.

zebrafish larvae = test: Toxicological assessment (maximum tolerated concentration) in zebrafish larvae; format: in vivo, Danio rerio; details: 4 dpf larvae, scored after 2 and 18 h of exposure; highest concentration without death or signs of toxicity
Method: Maximum tolerated concentration (MTC) was evaluated prior to further experiments. Briefly, 4 dpf zebrafish larvae (n = 12/group) were incubated with a range of PTE doses at 28.5 °C, for 18 h. The following parameters were scored after 2 and 18 h of exposure: touch response, posture, edema, morphology, signs of necrosis, swim bladder and heartbeat.

[2] = tested on: PTZ-induced seizures in mice; test: Timed iv PTZ seizure threshold test in mice; format: in vivo; details: for threshold for the first myoclonic twitch vs negative control: p < 0.001
Method: Each mice was placed in the cylindrical restrainer and the needle (27G, 3/4 in., Sterican®, B. Braun Melsungen AG, Melsungen, Germany) was injected into the lateral tail vein. The needle was attached by the polyethylene drain (PE20RW, Plastic One Inc. Roanoke, VA, USA) with the syringe containing 1% solution of PTZ (Sigma–Aldrich, St. Louis, MO, USA) in water and the syringe was located in the infuse pomp (model Physio 22, Hugo Sachs Elektronik–Harvard Apparatus GmbH, March-Hugstetten, Germany). The correct placement of the needle in the vein was confirmed based on the presence of the blood in the drain and the needle was protected against displacement by a peace of adhesive tape. Following injection, mice were took out from the restrainer and placed in the Plexiglas box for observation. The PTZ solution was infused into the vein at a constant rate of 0.2 ml/min. The time intervals from the start of infusion of PTZ solution to the beginning of three kinds of seizures, i.e., the first myoclonic twitch, generalized clonus with loss of the righting reflex and forelimb tonic extension, were noted. Infusion of PTZ solution was stopped immediately after onset of the tonic seizures, which usually were lethal. If animal survived the test, it was euthanized immediately. The threshold dose of PTZ (in mg/kg body weight) for each kind of seizures was calculated according to the following formula: PTZmg/kg=infusion durations×infusion rateml/s×PTZ concentrationmg/ml/weightkg
Experimental groups consisted of 9–13 animals. The data obtained in the iv PTZ test are presented as the threshold dose of PTZ (in mg/kg) + standard error of the mean (SEM) needed to elicit the respective kind of seizures. The data were analyzed by one-way ANOVA followed by the Tukey’s multiple comparison test. Statistical significance was noted when p values were equal or lower than 0.05.

[3] = tested on: GABA-induced chloride currents; design: method as in PMID 24462176; details: cited from earlier work
[4] = mouse, brain, read-out: Concentration of PTE in brain tissue
[5] = mouse, serum, read-out: Concentration of PTE in serum

COc1cc(/C=C/c2ccc(O)cc2)cc(OC)c1 [PTE, trans-3,5-dimethoxy-4′-hydroxy-trans-stilbene]
AUC0–24 ([1]; brain): 11.64 µg·h/g
Kp ([1]; mouse, read-out: brain-to-serum AUC ratio): 5.15
Kp ([1]; mouse, read-out: brain-to-serum Cmax ratio): 6
concentration at 15 min [1, 4]: 13100 ± 1820 ng/g
concentration at 30 min [1, 4]: 9920 ± 1100 ng/g
concentration at 60 min [1, 4]: 3500 ± 440 ng/g
concentration at 120 min [1, 4]: 820 ± 140 ng/g
concentration at 240 min [1, 4]: 180 ± 60 ng/g
concentration at 15 min [1, 5]: 1.76 ± 0.23 µg/mL
concentration at 30 min [1, 5]: 1.08 ± 0.16 µg/mL
concentration at 60 min [1, 5]: 0.55 ± 0.07 µg/mL
concentration at 120 min [1, 5]: 0.21 ± 0.03 µg/mL
concentration at 240 min [1, 5]: 0.1 ± 0.06 µg/mL
Cmax ([1]; mouse, brain): 13100 ng/g
MRT ([1]; mouse, brain): 1.09 h
half-life ([1]; mouse, brain): 1.82 h
Tmax ([1]; mouse, brain): 0.25 h
k el ([1]; mouse, brain): 0.000106 s⁻¹
Cmax ([1]; mouse, serum): 2.19 µg/mL
AUC(0-t) ([1]; mouse, serum, read-out: AUC0–24): 2.26 µg·h/mL
MRT ([1]; mouse, serum): 2.62 h
half-life ([1]; mouse, serum): 2.64 h
Tmax ([1]; mouse, serum): 0.25 h
k el ([1]; mouse, serum): 7.22e-05 s⁻¹
immobility time vs control (mice): did not significantly reduce
Maximum tolerated concentration (MTC) (zebrafish larvae): 10 µM
threshold for the first myoclonic twitch vs negative control ([2]; PTE 100 mg/kg ip, 30 min before test): Statistically significant increases
threshold for the first myoclonic twitch vs negative control ([2]; PTE 200 mg/kg ip, 30 min before test): Statistically significant increases
increase of threshold for generalized clonic seizures vs negative control ([2]; PTE 200 mg/kg ip, 30 min before test, p < 0.01): over 45%
threshold for tonic forelimb extension vs negative control ([2]; PTE 50 to 200 mg/kg ip, 30 min before test): did not significantly affect
time of highest anticonvulsant activity after ip administration (time-course effect) ([2]; iv PTZ test, data not shown): 30 min
effect on GABA-induced chloride currents [3]: enhances

From paper PMC6482291, “Anticonvulsant Activity of Pterostilbene in Zebrafish and Mouse Acute Seizure Tests” (Neurochemical Research, 2019)
